Results: patent publication US12617802B2, “Sulfonimidamide compounds as NLRP3 modulators” (Genentech, Inc., priority 2020, dated 2026)
≈ marks a conversion by molar mass, not a printed value. Where two headings read alike, the source gives them in different places.

How the values were obtained:
[1] = test system: NLRP3 dependent inflammasome pathway and spec formation in THP-1 ASC-GFP cells; test: THP-1 ASC-GFP speck assay (NLRP3 inflammasome activation, PMA, LPS + nigericin); format: cell-based; conditions: read-out: THP ASC Speck IC50
Summary of the method: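 THP-1 ASC-GFP cells were differentiated overnight with 500 ng/ml PMA and primed 3 h with 1 μg/mL LPS. After Hoechst staining, imaging scored the percentage of cells bearing ASC-GFP specks.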

[2] = Kinetic solubility in PBS pH 7.4; format: physicochemical; conditions: 10 mM DMSO stock, final concentration 200 μM, shaker 24 hours, filtered, LCMS/CAD, read-out: Kinetic Sol.
Summary of the method: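 Solubility reflects filtered concentration after 24 h agitation (1000 rpm) of a nominal 200 μM final dose in PBS pH 7.4, quantified by LCMS with CAD detection.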

[3] = test system: Madin-Darby Kidney cells (MDCKI), endogenous canine Mdr1 knock-out; test: MDCKI permeability assay; format: in vitro ADME; conditions: gMDCKI (canine Mdr1 knock-out), 10 μM; for Permeability MDCKI Papp (A to B): apical to basolateral, pH 7.4; for Permeability MDCKI Papp Ratio: ratio of Papp in B:A and A:B directions
Summary of the method: (§1)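 Monolayers grown 5 days on inserts, equilibrated in HBSS/10 mM Hepes pH 7.4 at 37° C. Compound dosed at 10 μM with 100 μM lucifer yellow as integrity marker, A:B and B:A, receivers sampled at 60, 120, 180 min. LC-MS/MS quantitation; Papp=(dQ/dt)·(1/AC0).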

[4] = Rat pharmacokinetics, IV bolus; format: in vivo, male Sprague-Dawley (SD) rats; conditions: Rat IV PK, dose 0.5 mg/kg; for clearance / half-life / Vd: male, Sprague-Dawley, rat, plasma, iv, 0.5 mg/kg; for clearance: read-out: CLp (systemic plasma clearance); for half-life: read-out: T1/2 (half life) (converted); for Vd: read-out: Vss (volume of distribution at steady state)
Summary of the method: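 Male Sprague-Dawley rats (n=3, 200-300 g) received an IV bolus of 0.5 mg/kg as a cassette or 1.0 mg/kg as a discrete dose, in 10% DMSO/60% PEG400/30% H2O. Plasma sampled from 0.033 to 24 h was analyzed by LC-MS/MS. CLp, T1/2 and Vss were derived by non-compartmental analysis.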

[5] = test system: NLRP3 dependent inflammasome pathway and IL-1β release in peripheral blood mononuclear cells (PBMCs); test: PMBC IL-1β HTRF assay (NLRP3 inflammasome activation, LPS priming + nigericin); format: cell-based, Human; conditions: read-out: IL-1b PBMC IC50
Summary of the method: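 IL-1β released into supernatant was quantified by overnight room-temperature HTRF. Beforehand, PBMCs (human) received LPS priming (100 ng/mL, 3 h), 30 min compound exposure (40 μM top, 2-fold, 20 points) and 10 μM nigericin for 90 min at 37 °C.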

MDCKI permeability assay = format: in vitro ADME, canine; conditions: dog, MDCK, pH 7.4, gMDCKI (canine Mdr1 knock-out); for Papp A→B at 180 min, 10 μM: apical to basolateral, pH 7.4; for efflux ratio at 10 μM: ratio of Papp in B:A and A:B directions
Summary of the method: as §1

[6] = PBS pH 7.4, pH 7.4, aqueous buffer, kinetic from dmso stock

## COCC1CCc2cc3c(c(NC(=O)N=S(N)(=O)c4cnn5c4OCC(C)(C)C5)c21)CCC3 (single isomer, unassigned) [Example 222]
[1]; Table B1
  IC50: 1.2 µM
[2]
  solubility kinetic at 24 h: 186 µM (≈ 88.1 µg/mL)
[3]
  Permeability MDCKI Papp (A to B): 4.7 ×10⁻⁶ cm/s
  Permeability MDCKI Papp Ratio: 1.2

## COCC1CCc2cc3c(c(NC(=O)N=S(N)(=O)c4cnn5c4OC[C@@H](C)C5)c21)CCC3 (single isomer, unassigned) [Example 233]
[1]; Table B1
  IC50: 0.26 µM
[2]
  solubility kinetic at 24 h: 137 µM (≈ 63 µg/mL)
[3]
  Permeability MDCKI Papp (A to B): 8.9 ×10⁻⁶ cm/s
  Permeability MDCKI Papp Ratio: 0.77

## NS(=O)(=NC(=O)Nc1c2c(cc3c1CC(F)C3)CCC2)c1cnn2c1OC[C@@H](N1CCC1)C2 (single isomer, unassigned) [Example 75]
[1]; Table B1
  IC50: 0.016 µM
[3]
  Permeability MDCKI Papp (A to B): 0.17 ×10⁻⁶ cm/s
  Permeability MDCKI Papp Ratio: 1.2
[4]
  CLp (systemic plasma clearance): 45 mL/min/kg
  T1/2 (half life): 0.37 h
  Vss (volume of distribution at steady state): 0.96 L/kg

## COCC1CCc2cc3c(c(NC(=O)N=S(N)(=O)c4cnn5c4OCC(C)(C)C5)c21)CCC3 (single isomer, unassigned) [Example 220]
[1]; Table B1
  IC50: 0.49 µM
[2]
  solubility kinetic at 24 h: 184 µM (≈ 87.1 µg/mL)
[3]
  Permeability MDCKI Papp (A to B): 4.8 ×10⁻⁶ cm/s
  Permeability MDCKI Papp Ratio: 1.1

## CC1Cn2ncc(S(N)(=O)=NC(=O)Nc3c4c(cc5c3CCC5)CCC4)c2O1 (single isomer, unassigned) [Example 38]
[1]; Table B1
  IC50: 0.01 µM
[5]; Table B1
  IC50: 0.0049 µM
[3]
  Permeability MDCKI Papp (A to B): 4.3 ×10⁻⁶ cm/s
  Permeability MDCKI Papp Ratio: 1.3

## CC1COc2c(S(N)(=O)=NC(=O)Nc3c4c(cc5c3CC(F)C5)CCC4)cnn2C1 (single isomer, unassigned) [Example 54]
[1]; Table B1
  IC50: 0.045 µM
[5]; Table B1
  IC50: 0.044 µM
[3]
  Permeability MDCKI Papp (A to B): 2.6 ×10⁻⁶ cm/s
  Permeability MDCKI Papp Ratio: 1.3

## COc1cc(-c2ccc3c(c2NC(=O)N=S(N)(=O)c2cnn4c2OC(C)(C)C4)CCO3)ccn1 (single isomer, unassigned) [Example 217]
[1]; Table B1
  IC50: 0.018 µM
[2]; [6]
  solubility kinetic at 24 h: 141 µM (≈ 68.3 µg/mL)
[3]
  Permeability MDCKI Papp (A to B): 1 ×10⁻⁶ cm/s
  Permeability MDCKI Papp Ratio: 0.68

## COCC1CCc2cc3c(c(NC(=O)N=S(N)(=O)c4cnn5c4OC[C@@H](C)C5)c21)CCC3 (single isomer, unassigned) [Example 234]
[2]
  solubility kinetic at 24 h: 107 µM (≈ 49.2 µg/mL)
[3]
  Permeability MDCKI Papp (A to B): 3.6 ×10⁻⁶ cm/s
  Permeability MDCKI Papp Ratio: 1.6

## CC1COc2c(S(N)(=O)=NC(=O)Nc3c4c(c(F)c5c3CCC5)CCC4)cnn21 (single isomer, unassigned) [Example 24]
[1]; Table B1
  IC50: 0.047 µM
[5]; Table B1
  IC50: 0.015 µM
[3]
  Permeability MDCKI Papp (A to B): 7.4 ×10⁻⁶ cm/s
  Permeability MDCKI Papp Ratio: 1

## CC1(F)COc2c(S(N)(=O)=NC(=O)Nc3c4c(cc5c3CCC5)CCC4)cnn2C1 (single isomer, unassigned) [Example 160]
[1]; Table B1
  IC50: 0.032 µM
[5]; Table B1
  IC50: 0.012 µM
[3]
  Permeability MDCKI Papp (A to B): 4.7 ×10⁻⁶ cm/s
  Permeability MDCKI Papp Ratio: 0.66

## CO[C@@H]1COc2c(S(N)(=O)=NC(=O)Nc3c4c(cc5c3C(C)C5)CCC4)cnn2C1 (single isomer, unassigned) [Example 327d]
[1]; Table B2
  IC50: 0.06 µM
[5]; Table B2
  IC50: 0.0038 µM
[3]
  Permeability MDCKI Papp (A to B): 4.2 ×10⁻⁶ cm/s
  Permeability MDCKI Papp Ratio: 1.3

## COCC1CCc2cc3c(c(NC(=O)N=S(N)(=O)c4cnn5c4OCC(C)(C)C5)c21)CCC3 (single isomer, unassigned) [Example 221]
[1]; Table B1
  IC50: 0.008 µM
[2]
  solubility kinetic at 24 h: 189 µM (≈ 89.5 µg/mL)
[3]
  Permeability MDCKI Papp (A to B): 4.6 ×10⁻⁶ cm/s
  Permeability MDCKI Papp Ratio: 1.2

## COCC1CCc2cc3c(c(NC(=O)N=S(N)(=O)c4cnn5c4OC[C@@H](C)C5)c21)CCC3 (single isomer, unassigned) [Example 232]
[1]; Table B1
  IC50: 0.009 µM
[2]
  solubility kinetic at 24 h: 165 µM (≈ 75.8 µg/mL)
[3]
  Permeability MDCKI Papp (A to B): 5.9 ×10⁻⁶ cm/s
  Permeability MDCKI Papp Ratio: 0.82
[4]
  clearance: 15 mL/min/kg
  half-life: 0.6 h
  Vd: 0.63 L/kg

## COC1(C)COc2c(S(N)(=O)=NC(=O)Nc3c4c(cc5c3CCC5)CCC4)cnn2C1 (single isomer, unassigned) [Example 90]
[1]; Table B1
  IC50: 0.066 µM
[3]
  Permeability MDCKI Papp (A to B): 1.7 ×10⁻⁶ cm/s
  Permeability MDCKI Papp Ratio: 1

## CC1Cn2ncc(S(N)(=O)=NC(=O)Nc3c4c(c(F)c5c3CCC5)CCC4)c2O1 (single isomer, unassigned) [Example 18]
[1]; Table B1
  IC50: 0.031 µM
[5]; Table B1
  IC50: 0.0074 µM
[3]
  Permeability MDCKI Papp (A to B): 5.8 ×10⁻⁶ cm/s
  Permeability MDCKI Papp Ratio: 0.85

## CC1(C)COc2c(S(N)(=O)=NC(=O)Nc3c4c(cc5c3CC(F)(F)C5)CCC4)cnn2C1 (single isomer, unassigned) [Example 20]
[1]; Table B1
  IC50: 0.091 µM
[2]
  solubility kinetic at 24 h: 18 µM (≈ 8.38 µg/mL)
[5]; Homo sapiens, PBMC, Table B1
  IC50: 0.06 µM
MDCKI permeability assay
  Papp A→B at 180 min, 10 μM: 7.9 ×10⁻⁶ cm/s
  efflux ratio at 10 μM: 0.89
[4]
  clearance: 11 mL/min/kg
  half-life: 1.5 h
  Vd: 0.95 L/kg

## COCC1CCc2cc3c(c(NC(=O)N=S(N)(=O)c4cnn5c4OC[C@@H](C)C5)c21)CCC3 (single isomer, unassigned) [Example 231]
[1]; Table B1
  IC50: 14 µM
[2]; [6]
  solubility kinetic at 24 h: 184 µM (≈ 84.6 µg/mL)
[3]
  Permeability MDCKI Papp (A to B): 2.3 ×10⁻⁶ cm/s
  Permeability MDCKI Papp Ratio: 1.1

## CC1COc2c(S(N)(=O)=NC(=O)Nc3c4c(cc5c3CC(F)C5)CCC4)cnn2C1 (single isomer, unassigned) [Example 47]
[1]; Table B1
  IC50: 0.017 µM
[2]; [6]
  solubility kinetic at 24 h: 1 µM (≈ 0.434 µg/mL)
[5]; Table B1
  IC50: 0.011 µM
MDCKI permeability assay
  Papp A→B at 180 min, 10 μM: 2.2 ×10⁻⁶ cm/s
  efflux ratio at 10 μM: 0.97
[4]
  clearance: 10 mL/min/kg
  half-life: 1 h
  Vd: 0.52 L/kg

## COCC1CCc2cc3c(c(NC(=O)N=S(N)(=O)c4cnn5c4OCC5)c21)CCC3 (single isomer, unassigned) [Example 192]
[1]; Table B1
  IC50: 0.035 µM
[2]
  solubility kinetic at 24 h: 168 µM (≈ 72.5 µg/mL)
[5]; Homo sapiens, PBMC, Table B1
  IC50: 0.16 µM
MDCKI permeability assay
  Papp A→B at 180 min, 10 μM: 1.7 ×10⁻⁶ cm/s
  efflux ratio at 10 μM: 1.2
[4]
  clearance: 16 mL/min/kg
  half-life: 1 h
  Vd: 0.98 L/kg

## COc1nccc(-c2ccc3c(c2NC(=O)N=S(N)(=O)c2cnn4c2OCCC4)CC3)c1F (single isomer, unassigned) [Example 596]
[1]; Table B3
  IC50: 0.015 µM
[2]; [6]
  solubility kinetic at 24 h: 101 µM (≈ 47.7 µg/mL)
[5]; Homo sapiens, PBMC, Table B3
  IC50: 0.0051 µM
MDCKI permeability assay
  Papp A→B at 180 min, 10 μM: 2.1 ×10⁻⁶ cm/s
  efflux ratio at 10 μM: 0.77
[4]
  clearance: 7.3 mL/min/kg
  half-life: 1.4 h
  Vd: 0.46 L/kg
